Experimental data from ChEMBL document CHEMBL1250444, “Nitric oxide activates TRP channels by cysteine S-nitrosylation” (Nat Chem Biol, 2006).
Residue numbers refer to the chain shown, from its start. Active and inactive are the calls of the source. No cut-off for these calls is given here.

Legend:
[1] = molecular target: Transient receptor potential cation channel subfamily M member 7 (Homo sapiens) (UniProt Q96QT4); assay: Induction of TRPM7 S-nitrosylation in HEK cells assessed as increase in Ca2+ level from extracellular space at 30 uM; format: cell-based; conditions: HEK293
Chain of Transient receptor potential cation channel subfamily M member 7 (Homo sapiens) (Q96QT4 whole entry): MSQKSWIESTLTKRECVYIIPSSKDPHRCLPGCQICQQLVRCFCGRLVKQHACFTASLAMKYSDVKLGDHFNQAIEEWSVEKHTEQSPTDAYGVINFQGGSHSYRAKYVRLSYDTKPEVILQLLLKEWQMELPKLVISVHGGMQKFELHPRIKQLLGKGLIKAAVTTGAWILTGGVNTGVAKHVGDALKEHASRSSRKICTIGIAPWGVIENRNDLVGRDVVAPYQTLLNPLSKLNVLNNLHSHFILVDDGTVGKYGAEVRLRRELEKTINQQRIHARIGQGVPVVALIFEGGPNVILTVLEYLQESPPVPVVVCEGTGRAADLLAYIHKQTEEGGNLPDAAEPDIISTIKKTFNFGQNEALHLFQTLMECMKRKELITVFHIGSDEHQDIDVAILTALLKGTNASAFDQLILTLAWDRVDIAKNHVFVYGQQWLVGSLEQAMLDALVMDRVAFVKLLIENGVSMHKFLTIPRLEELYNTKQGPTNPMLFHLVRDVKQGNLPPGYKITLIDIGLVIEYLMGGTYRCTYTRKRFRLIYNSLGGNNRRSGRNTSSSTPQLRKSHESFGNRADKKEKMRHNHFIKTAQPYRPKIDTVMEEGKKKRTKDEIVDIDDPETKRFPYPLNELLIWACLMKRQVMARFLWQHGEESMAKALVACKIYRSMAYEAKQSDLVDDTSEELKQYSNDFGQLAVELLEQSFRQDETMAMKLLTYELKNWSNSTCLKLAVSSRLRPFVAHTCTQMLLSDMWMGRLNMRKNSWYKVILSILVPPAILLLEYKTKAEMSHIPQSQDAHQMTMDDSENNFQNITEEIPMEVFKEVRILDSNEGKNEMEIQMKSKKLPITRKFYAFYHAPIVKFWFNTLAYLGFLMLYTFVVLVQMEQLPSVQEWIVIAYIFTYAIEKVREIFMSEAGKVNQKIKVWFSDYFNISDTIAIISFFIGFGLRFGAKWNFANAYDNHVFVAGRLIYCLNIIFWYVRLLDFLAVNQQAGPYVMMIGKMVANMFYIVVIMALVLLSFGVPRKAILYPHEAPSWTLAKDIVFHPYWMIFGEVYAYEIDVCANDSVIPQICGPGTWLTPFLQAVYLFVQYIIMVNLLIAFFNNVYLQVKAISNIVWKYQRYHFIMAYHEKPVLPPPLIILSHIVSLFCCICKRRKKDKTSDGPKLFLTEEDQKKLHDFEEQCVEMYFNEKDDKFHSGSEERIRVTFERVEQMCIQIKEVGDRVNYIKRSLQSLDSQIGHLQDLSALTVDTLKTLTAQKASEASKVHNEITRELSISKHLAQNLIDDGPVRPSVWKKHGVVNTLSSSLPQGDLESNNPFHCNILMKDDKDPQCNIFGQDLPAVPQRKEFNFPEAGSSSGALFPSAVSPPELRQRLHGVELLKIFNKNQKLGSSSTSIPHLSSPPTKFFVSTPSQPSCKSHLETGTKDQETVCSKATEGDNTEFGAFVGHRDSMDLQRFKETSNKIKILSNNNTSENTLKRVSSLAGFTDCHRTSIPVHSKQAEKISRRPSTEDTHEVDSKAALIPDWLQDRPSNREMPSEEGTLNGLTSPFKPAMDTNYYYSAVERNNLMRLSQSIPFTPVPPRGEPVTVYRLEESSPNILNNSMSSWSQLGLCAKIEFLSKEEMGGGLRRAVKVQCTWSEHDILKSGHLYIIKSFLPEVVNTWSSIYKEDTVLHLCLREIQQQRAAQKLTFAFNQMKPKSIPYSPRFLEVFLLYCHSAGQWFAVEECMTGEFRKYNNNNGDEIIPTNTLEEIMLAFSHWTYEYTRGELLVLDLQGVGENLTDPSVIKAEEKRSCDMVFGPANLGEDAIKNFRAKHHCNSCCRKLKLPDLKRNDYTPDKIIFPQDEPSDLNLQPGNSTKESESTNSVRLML

[2] = molecular target: T1, Short transient receptor potential channel 5 (Homo sapiens) (UniProt Q9UL62); assay: Induction of S-nitrosylation of TRPC5 in HEK cells assessed as increase in Ca2+ level from extracellular space at 30 uM in presence of ascorbic acid; format: cell-based; conditions: HEK293
T1 sequence (whole entry): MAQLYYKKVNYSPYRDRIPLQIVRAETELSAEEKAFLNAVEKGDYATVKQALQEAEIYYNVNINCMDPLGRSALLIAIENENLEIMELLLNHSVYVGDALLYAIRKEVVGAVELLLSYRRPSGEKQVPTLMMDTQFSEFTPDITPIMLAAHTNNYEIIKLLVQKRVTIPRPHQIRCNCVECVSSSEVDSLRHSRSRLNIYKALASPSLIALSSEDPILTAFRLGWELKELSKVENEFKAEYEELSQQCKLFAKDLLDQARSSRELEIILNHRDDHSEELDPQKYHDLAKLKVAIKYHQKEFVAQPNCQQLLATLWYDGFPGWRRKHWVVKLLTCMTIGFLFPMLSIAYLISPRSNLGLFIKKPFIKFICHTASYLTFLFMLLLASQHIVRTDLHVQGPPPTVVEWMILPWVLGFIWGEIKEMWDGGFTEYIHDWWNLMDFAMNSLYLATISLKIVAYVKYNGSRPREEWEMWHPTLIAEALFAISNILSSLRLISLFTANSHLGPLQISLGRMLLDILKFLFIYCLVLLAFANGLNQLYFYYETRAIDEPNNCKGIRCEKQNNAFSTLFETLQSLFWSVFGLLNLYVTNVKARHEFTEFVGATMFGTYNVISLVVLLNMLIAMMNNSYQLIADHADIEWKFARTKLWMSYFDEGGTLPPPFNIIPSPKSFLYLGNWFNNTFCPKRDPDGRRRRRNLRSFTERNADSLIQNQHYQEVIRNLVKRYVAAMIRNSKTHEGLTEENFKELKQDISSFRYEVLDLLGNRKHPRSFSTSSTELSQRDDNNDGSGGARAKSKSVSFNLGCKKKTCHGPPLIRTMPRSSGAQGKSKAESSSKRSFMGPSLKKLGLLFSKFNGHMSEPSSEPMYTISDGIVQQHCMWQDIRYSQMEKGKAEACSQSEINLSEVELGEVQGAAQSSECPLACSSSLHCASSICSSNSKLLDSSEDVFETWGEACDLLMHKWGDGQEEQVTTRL

[3] = molecular target: T1, Short transient receptor potential channel 5 (Homo sapiens); assay: Induction of S-nitrosylation of TRPC5 in HEK cells assessed as increase in Ca2+ level from extracellular space at 30 uM in presence of dithiothreitol; format: cell-based; conditions: HEK293
[4] = test system: T2, Short transient receptor potential channel 5 (Homo sapiens), Q9UL62 [C558S]; assay: Decrease in TRPC5 C558S mutant S-nitrosylation in HEK cells assessed as inhibition of incorporation of DTNB-2Bio at 30 uM relative to control; format: cell-based; conditions: HEK293
T2 sequence (whole entry): T1 sequence (whole entry) with C558S

[5] = molecular target: T1, Short transient receptor potential channel 5 (Homo sapiens); assay: Activation of TRPC5 expressed in BAEC expressing TRPC5 siRNA assessed as increase in Ca2+ level from extracellular space at 100 uM
[6] = molecular target: T1, Short transient receptor potential channel 5 (Homo sapiens); assay: Induction of S-nitrosylation of TRPC5 in HEK cells assessed as increase in Ca2+ level from extracellular space at 300 uM; format: cell-based; conditions: HEK293
[7] = molecular target: T1, Short transient receptor potential channel 5 (Homo sapiens); assay: Induction of S-nitrosylation of TRPC5 in HEK cells assessed as increase in Ca2+ level from extracellular space at 1 mM in presence of ascorbic acid; format: cell-based; conditions: HEK293
[8] = molecular target: T1, Short transient receptor potential channel 5 (Homo sapiens); assay: Induction of S-nitrosylation of TRPC5 in HEK cells assessed as inhibition of incorporation of DTNB-2Bio at 300 uM; format: cell-based; conditions: HEK293
HEK293 [9] = assay: Activation of rat TRPV1 Cys621 mutant expressed in HEK cells assessed as increase in Ca2+ level from extracellular space at 0.1 to 1 mM; format: cell-based
HEK293 [10] = assay: Induction of rat TRPV1 Cys616 mutant S-nitrosylation expressed in HEK cells assessed as increase in Ca2+ level from extracellular space at 0.1 to 1 mM; format: cell-based
HEK293 [11] = assay: Induction of rat TRPV1 Cys621 mutant S-nitrosylation expressed in HEK cells assessed as increase in Ca2+ level from extracellular space at 0.1 to 1 mM; format: cell-based

| Activity [1] | Activity [2] | Activity [3] | Activity [4] | Activity [5] | Activity [6] | Activity [7] | Activity [8] | Compound | Activity (HEK293 [9]) | Activity (HEK293 [10]) | Activity (HEK293 [11]) |
| --- | --- | --- | --- | --- | --- | --- | --- | --- | --- | --- | --- |
| inactive | Active | inactive | Active | inactive | – | – | – | O=[N+]([O-])c1ccc(SSc2ccc([N+](=O)[O-])cn2)nc1 | – | – | – |
| – | – | – | – | – | Active | inactive | Active | CC(=O)N[C@@H](C(=O)O)C(C)(C)SN=O (racemic) | inactive | inactive | inactive |
